Reference: ChEMBL document CHEMBL5550085, “A new small molecule DoNA binding to CAG repeat RNA” (Bioorg Med Chem, 2024)
The source made the active and inactive calls. No cut-off for these calls is given here.

Assays:
Assay type in all cases: nucleic-acid assay
RNA [1] = test: Binding affinity to (CAG)10 repeat RNA (unknown origin) at 2 uM by SPR analysis
RNA [2] = test: Binding affinity to CAG repeat RNA overhang (unknown origin)
RNA [3] = test: Binding affinity to CAG repeat RNA terminal (unknown origin)
RNA [4] = test: Binding affinity to (CAG)10 repeat RNA (unknown origin) assessed as association constant by SPR analysis
RNA [5] = test: Binding affinity to 5' (CAG)3 repeat RNA overhang (unknown origin) by SPR analysis; settings: dose 0.063-2 µM
RNA [6] = test: Binding affinity to (CAG)3 repeat RNA hairpin loop (unknown origin) by SPR analysis; settings: dose 0.063-2 µM
RNA [7] = test: Binding affinity to (CAG)10 repeat RNA (unknown origin) assessed as dissociation rate constant by SPR analysis
RNA [8] = test: Binding affinity to (CAG)2 repeat RNA hairpin loop (unknown origin) by SPR analysis
RNA [9] = test: Binding affinity to 3' (CAG) repeat RNA hairpin loop (unknown origin) at 2 uM by SPR analysis
RNA [10] = test: Binding affinity to 5' (CAG)2 repeat RNA overhang (unknown origin) at 2 uM by SPR analysis
RNA [11] = test: Binding affinity to 5' (CAG) repeat RNA hairpin loop (unknown origin) at 2 uM by SPR analysis
RNA [12] = test: Binding affinity to (CAG)10 repeat RNA (unknown origin) by SPR analysis; settings: dose 1.0 µM
RNA [13] = test: Binding affinity to (CAG)10 repeat RNA (unknown origin) assessed as dissociation constant by SPR analysis
RNA [14] = test: Binding affinity to (CAG)2 repeat RNA (unknown origin) at 0.063 to 2 uM by SPR analysis; settings: dose 0.063-2 µM
RNA [15] = test: Binding affinity to (CAG)10 repeat RNA internal loop (unknown origin) by SPR analysis
RNA [16] = test: Binding affinity to 5' (CAG)2 repeat RNA overhang (unknown origin) by SPR analysis; settings: dose 0.063-2 µM
RNA [17] = test: Binding affinity to (CAG)3 repeat RNA (unknown origin) at 0.063 to 2 uM by SPR analysis; settings: dose 0.063-2 µM
RNA [18] = test: Binding affinity to 3' (CAG)2 repeat RNA overhang (unknown origin) at 0.063 to 2 uM by SPR analysis; settings: dose 0.063-2 µM
RNA [19] = test: Binding affinity to (CAG)10 repeat RNA (unknown origin) at 20 uM by CSI-TOF MS analysis
RNA [20] = test: Binding affinity to 5' (CAG)3 repeat RNA overhang (unknown origin) at 2 uM by SPR analysis

SMILES | Activity (RNA [1]) | Activity (RNA [2]) | Activity (RNA [3]) | Ka (RNA [4]) | Activity (RNA [5]) | Activity (RNA [6]) | Kdiss (RNA [7]) | Activity (RNA [8]) | Activity (RNA [9]) | Activity (RNA [10]) | Activity (RNA [11]) | Activity (RNA [12]) | Kd (RNA [13]) [µM] | Activity (RNA [14]) | Activity (RNA [15]) | Activity (RNA [16]) | Activity (RNA [17]) | Activity (RNA [18]) | Activity (RNA [19]) | Activity (RNA [20])
Cc1ccc2ccc(NC(=O)CCNCCC(=O)NCc3ccc4ccc(=O)[nH]c4n3)nc2n1 | inactive | inactive | inactive | – | – | – | – | – | – | – | – | – | – | – | – | – | – | – | – | –
Cc1ccc2ccc(NC(=O)CCN(CCCCCN(CCC(=O)NCc3ccc4ccc(=O)[nH]c4n3)CCC(=O)Nc3ccc4ccc(C)nc4n3)CCC(=O)NCc3ccc4ccc(=O)[nH]c4n3)nc2n1 | – | – | – | 0.47 10^4/M/s | Dose-Dependent Effect | Dose-Dependent Effect | 2.9 10^-2/s | inactive | Active | inactive | Active | Dose-Dependent Effect | 6.1 | Active | Active | Dose-Dependent Effect | Active | Active | Active | inactive
